Laboratory results reported in patent US4426453A, “Derivatives of iodothyronine compounds and their use in an assay for the free iodothyronine compounds” (Amersham International Limited, priority 1980, dated 1984).
“Also recorded” adds a separate entry of the source. Values belong to the molecule of their own block, whether it stands above or below them.

Tests used:
[1] = Stability in water / assay buffer; assay type: physicochemical; conditions: qualitative
TBG [2] = target: T1, TBG (Homo sapiens, UniProt P05543); test: T4.EDTA binding strength to TBG relative to T4 (displacement of 125I-T4 tracer from TBG:anti-TBG binding reagent); design: 1 ml of resin stripped human serum; from tissue; host or cells: human serum (resin stripped); conditions: for binding to TBG (in words): qualitative
T1 sequence (P05543 21-415): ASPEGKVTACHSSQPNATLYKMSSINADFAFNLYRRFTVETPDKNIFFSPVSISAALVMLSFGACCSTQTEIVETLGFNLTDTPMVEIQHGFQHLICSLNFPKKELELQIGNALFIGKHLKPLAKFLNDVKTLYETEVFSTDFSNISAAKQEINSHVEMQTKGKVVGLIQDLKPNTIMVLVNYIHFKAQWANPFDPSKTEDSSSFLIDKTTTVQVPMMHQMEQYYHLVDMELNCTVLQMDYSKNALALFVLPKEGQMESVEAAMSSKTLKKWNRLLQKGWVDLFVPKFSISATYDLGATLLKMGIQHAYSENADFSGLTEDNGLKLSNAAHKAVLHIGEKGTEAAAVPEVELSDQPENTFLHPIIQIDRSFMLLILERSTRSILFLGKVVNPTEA
Procedure: (§1) Pre-precipitated antiserum (binding reagent) to either TBG or prealbumin is incubated with a serum source of TBG or prealbumin, so that the T4 binding protein is isolated on the binding reagent. Tracer ^125 I-T4 is added to the resulting complex and is thus purified. The displacement of the tracer ^125 I-T4, by varying concentrations of T4 and T4.EDTA, from the TBG or prealbumin, can then be studied. The results can be used to estimate the differences in binding affinity between T4 and T4.EDTA for the two T4 binding proteins.
15% Donkey anti-sheep in phosphate
2% TBG Antiserum buffer + 0.05% BSA
Equal quantities of the above solutions are mixed and rotated overnight at 4° so that the final concentrations in the binding reagent are 7.5% donkey anti-sheep, and 1% TBG antiserum. Centrifugation at 900 rpm, decantation and resuspension in fresh buffer are carried out twice to wash the reagent.
1 ml of resin stripped human serum and 20 ml of the above binding reagents are mixed for 1 hour at room temperature. Centrifugation, decantation and resuspension in fresh buffer (phosphate+0.05% BSA) are carried out twice.
Typically 10 ml of TBG:anti-TBG binding reagents, 28 ml of phosphate buffer+0.05% BSA, and 2 ml of ^125 I-T4 tracer solution (0.1 μCi high specific activity T4 per ml in phosphate buffer+0.05% BSA) are mixed for 1 hour at room temperature. Centrifugation, decantation and resuspension in fresh buffer (phosphate+0.05% BSA) are carried out twice. Once prepared the tracer T4:TBG:anti-TBG binding reagent is used immediately.
The stock solutions are diluted in phosphate buffer+0.005% BSA. […]
(§2) Thus the percentage bound of the tracer at different T4 and T4.EDTA concentrations, can be determined in the two systems.
(§3) Tracer percentage bound is plotted against T4 and T4.EDTA concentrations, and from these curves an estimate of the non-specific binding can be made. The data can then be re-calculated, using this blank correction, plotted, and the T4 and T4.EDTA concentrations corresponding to a range of tracer percentage bound values can be read off the curve. […]

[3] = tested on: solid phase T4 antibody (T4-specific antiserum on latex particles); test: Free-T4 assay using T4.EDTA tracer: standard curve; assay type: binding; conditions: 37° C., one hour
Source text: T4.EDTA was labelled with ^125 I by an exchange reaction using sodium iodide-^125 I and chloramine-T. The specific activity obtained was typically 500 millicuries per milligram, and was used as a working concentration of 0.13 microcuries per […] in a 60 millimolar phosphate buffer, pH 7.4, containing 0.9% sodium chloride, 0.9% bovine serum albumin and 0.1% sodium azide.
A solid phase antibody was used consisting of T4-specific antiserum bound on to micron sized latex particles such that the suspension contained 0.66 milligram of latex particles per milliliter and antibodies from 0.5 microliters of T4-specific antiserum per milligram of latex. The buffer was 10 millimolar phosphate, pH 7.4 containing 0.1% sodium azide.
A set of 6 human serum pools were prepared by standard techniques to contain free-T4 concentrations ranging from zero to approximately 10 nanograms per deciliter. These standards were calibrated with reference to an equilibrium dialysis free T4 assay.
The free T4 assay was set up in polystyrene assay tubes following this protocol:
100 μl serum standard or unknown serum sample
500 μl ^125 I-T4.EDTA tracer solution.
500 μl solid phase T4 antibody suspension.
The assay tubes were vortex mixed, and incubated at 37° C. in a water bath for one hour. The tubes were centrifuged at 1500 g for 20 minutes and the supernatant liquid decanted. The readioactivity of the precipitate was measured.

TBPA (prealbumin) = target: T2, TBPA (prealbumin) (Homo sapiens, UniProt P02766); test: T4.EDTA binding strength to prealbumin (TBPA) relative to T4 (displacement of 125I-T4 tracer from TBPA:anti-TBPA binding reagent)
T2 construct: from tissue; host or cells: normal serum
Procedure: as §1
This is prepared as for the anti-TBG binding reagent except that equal volumes of 30% donkey anti-rabbit second antibody and 4% TBPA antiserum solutions were mixed to give final concentrations of 15% donkey anti-rabbit, and 2% anti-TBPA.
600 μl normal serum and 20 ml anti-TBPA binding reagent are mixed for 1 hour at room temperature. […]
as §2, §3

T4 antiserum = test: Affinity with respect to T4 antiserum; assay type: binding
[4] = tested on: Antisera (having low T4 cross reactivity); test: Binding to antisera having low T4 cross reactivity; conditions: antisera with low T4 cross reactivity; compared with T3
TBG [5] = target: T1, TBG; conditions: blood stream of human beings; cited from earlier work
TBPA = conditions: blood stream of human beings; cited from earlier work
Albumin = conditions: blood stream of human beings; cited from earlier work
[6] = % of the affinity constant of T4, 37° C.

- binding to TBG (in words) (TBG [2]): binds appreciably to TBG
Structure (SMILES): COC(=O)[C@H](Cc1cc(I)c(Oc2cc(I)c(O)c(I)c2)c(I)c1)NC(C)=O [N-Acetyl-thyroxine-methyl ester, N-acetyl-thyroxine-methyl ester, reference compound]
- stability in water / usable time after dilution into the assay buffer [1]: only gives useful assay results within hours of dilution into the assay buffer

Structure (SMILES): O=C(O)CN(CCN(CC(=O)O)CC(=O)NC(Cc1cc(I)c(Oc2cc(I)c(O)c(I)c2)c(I)c1)C(=O)O)CC(=O)O (stereo not shown) [^125 I-T4.EDTA]
- % radioactivity in solid phase ([3]; free T4 0 ng/dl): 61.8%
- % radioactivity in solid phase ([3]; free T4 0.45 ng/dl): 41.2%
- % radioactivity in solid phase ([3]; free T4 0.95 ng/dl): 30.8%
- % radioactivity in solid phase ([3]; free T4 1.9 ng/dl): 21.1%
- % radioactivity in solid phase ([3]; free T4 4.9 ng/dl): 12.4%
- % radioactivity in solid phase ([3]; free T4 9.0 ng/dl): 9.3%

- affinity constant for TBPA relative to that of T4 (TBPA (prealbumin); [6]): 2.7%
- binding to TBPA (in words) (TBPA (prealbumin); qualitative): binds only very weakly to TBG and TBPA
- stability in water / usable time after dilution into the assay buffer [1]: stable in water
- affinity constant for TBG relative to that of T4 (TBG [2]; [6]): 3.5%
Structure (SMILES): O=C(O)CN(CCN(CC(=O)O)CC(=O)NC(Cc1cc(I)c(Oc2cc(I)c(O)c(I)c2)c(I)c1)C(=O)O)CC(=O)O (stereo not shown) [T4.EDTA, 1-{3',5'-di-iodo-4'(3",5"-di-iodo-4"-Hydroxyphenoxy)phenyl}2-carboxy-6,9-dicarboxymethyl-4-oxo-3,6,9-triazaundecan-11-oic acid]
- affinity constant with respect to T4 antiserum relative to that of T4 (T4 antiserum; % of that of T4): 90.4%
- binding to T4 antiserum (in words) (T4 antiserum; relative to T4): binds almost as strongly to T4 antiserum as does T4 itself
- binding to TBG (in words) (TBG [2]): binds only very weakly to TBG; also recorded: shows no significant tendency to bind to TBG

Structure (SMILES): O=C(O)CN(CCN(CC(=O)O)CC(=O)NC(Cc1cc(I)c(Oc2ccc(O)c(I)c2)c(I)c1)C(=O)O)CC(=O)O (stereo not shown) [T3.EDTA, 2-carboxy-6,9-dicarboxymethyl-1 3',5'di-iodo-4'(3"-iodo-4"-hydroxy)phenoxy phenyl 4-oxo-3,6,9-triazaundecan-11-oic acid]
- binding to antisera relative to T3 [4]: equal, or better, binding than T3 itself

Structure (SMILES): N[C@@H](Cc1cc(I)c(Oc2cc(I)c(O)c(I)c2)c(I)c1)C(=O)O [T4, Thyroxine]
- percentage of T4 bound to TBG (TBG [5]): approximately 70%
- percentage of T4 bound to TBPA (TBPA): 20-25%
- percentage of T4 bound to Albumin (Albumin): 5-10%
